Where “and” joins values, the source holds several entries; their conditions need not be identical. Equal values may be shown once.
Legend:
[1] = Clinical application: plasma concentration-time profile of LSD and O-H-LSD after a single oral 5 μg LSD dose in healthy volunteers; format: in vivo, human; conditions: three healthy volunteers
Description: To examine the application of the developed method, LSD and O-H-LSD concentrations were quantified in plasma samples of three healthy volunteers receiving a single oral dose of 5 μg. This corresponds to a very low LSD dose, used in LSD microdosing clinical trials (Holze et al., 2021a). The study was conducted in accordance with the Declaration of Helsinki and approved by the Medical Ethics Committee of the Academic Hospital of Maastricht and Maastricht University. The use of LSD in humans was authorized by the Dutch Drug Enforcement Administration. All volunteers provided written informed consent prior to study participation. To establish concentration time profiles, blood samples were collected in lithium heparin coated tubes at the following time points: 0, 0.5, 1, 1.5, 2, 3, 4, 6 after treatment. Blood samples were centrifuged, and plasma was frozen at −20° C. until analysis.
The application of the method was assessed by analyzing the PK of LSD and O-H-LSD in three healthy volunteers treated with an oral dose of 5 μg LSD base (FIG. 5). An oral dose of 5 μg LSD base in ethanol (Holze et al., 2021) was administered to three healthy volunteers. Plasma concentrations of LSD and O-H-LSD were quantified before and up to six hours post-treatment. […] Mean values and the standard deviations are illustrated.
The maximal plasma level of LSD and O-H-LSD was on average 178 pg/ml (SD: 30.6 pg/ml) and 10.4 pg/ml (SD: 2.59 pg/ml), respectively. LSD reached Tmax approximately after 1 hour post-treatment, whereas O-H-LSD peaked after 3 hours. The LSD concentrations measured after a dose of only 5 μg were approximately 7 to 18 times higher than the methods limit of quantification. Thus, the PK of LSD could straightforwardly be established also for very low so-called microdoses (Kuypers et al., 2019). In the case of O-H-LSD, a larger amount of plasma sample was required to determine the plasma concentration time profile after a dose of 5 μg. Three times more plasma was utilized (150 instead of 50 μl), which was extracted as outlined above using however three-fold more acetonitrile for the extraction. Sensitivity was increased by evaporating the extract and reconstituting the residue in a mixture of 150 μl of mobile phase A and mobile phase B (9/1 v/v). […] In future, it will also be considered to inject a larger amount of extract, which is in a first step retained and concentrated on a trapping column. In a second step, the direction of the flow is inverted and so that the sample can be loaded and eluted on the analytical column. This column switching procedure, will increase the sensitivity in the event that the sample can be retained on the trap column. Importantly, the time-consuming solvent evaporation step can thereby be avoided.

[2] = Freeze/thaw stability tests in human plasma (three cycles, about −20° C.); format: physicochemical; conditions: for Change in concentration [%]: 3 F/T cycles vs Baseline; for Accuracy: single QC replicate
From the text: (§1) Each analyte had to be stable in human plasma for at least three freeze-thaw cycles (for repeated sample preparations) and at ambient temperature for at least eight hours (maximal duration of sample preparation). Measured samples should be stable for a second injection when the first analytical run was not valid. The analytes had to be stable in the matrix at the intended storage temperatures and study duration.
(§2) An analyte was considered stable at one of the above tests when no increase or decrease of the analyte concentration of more than 15% for the mean of at least three analyzed QC samples at low, medium and at high concentration was observed.
Seven of each LLOQ, QCLOW, QCMID, QCHIGH, and ULOQ sample in human plasma were stored at about −20° C. for at least 24 hours and thawed unassisted at ambient temperature. When completely thawed, the samples were refrozen for at least 12 hours under the same conditions. The freeze-thaw cycle was repeated two more times. After the third cycle the samples were worked up and analyzed. The concentrations in the frozen and thawed samples were compared with freshly processed QC samples. Concentrations were calculated based on two freshly prepared CALs measured at the beginning and the other at the end of the validation run.

[3] = Reinjection reproducibility of worked-up plasma samples (overnight at 10° C. in autosampler; 1 week at −20° C.); format: physicochemical, human; conditions: for Change in concentration: 1 night at 10° C. in the autosampler vs Baseline; for Change in concentration [%]: 8 days at −20° C. vs Baseline; for Accuracy: single QC replicate
From the text: as §1, §2
Worked-up and measured Cal and QC samples (prepared in human plasma) of a valid run were repeatedly analyzed. Reinjection was performed after overnight storage at 10° C. (autosampler) and after 1-week storage at −20° C. The run was checked according to the acceptance criteria for validation runs. The calculated mean values for QC samples were compared between the original and reinjected run.

[4] = QCHIGH: 1000 pg/ml, 3 F/T cycles
[5] = ULOQ: 10000 pg/ml, 3 F/T cycles
[6] = LLOQ: 10 pg/ml, reinjection after 8 days at −20° C.
[7] = QCHIGH: 1000 pg/ml, reinjection after 8 days at −20° C.
[8] = QCLOW: 25 pg/ml, reinjection after 8 days at −20° C.
[9] = QCMID: 100 pg/ml, reinjection after 8 days at −20° C.
[10] = ULOQ: 10000 pg/ml, reinjection after 8 days at −20° C.

For CCN(CC)C(=O)[C@@H]1C=C2c3cccc4[nH]cc(c34)C[C@H]2N(C)C1 [LSD, Lysergic acid diethylamide], the Tmax ([1]; human, 5 ug, single oral dose of 5 μg LSD base, read-out: Tmax (time of peak plasma level post-treatment)) was roughly 1 h, the “maximal plasma level (average)” value ([1]; single oral dose of 5 μg LSD base in ethanol, LC-MS/MS, O-H-LSD measured as metabolite using 150 μl plasma) was 178 pg/mL and the “Accuracy, Intra-assay Mean” value ([2]; LLOQ: 10 pg/ml, 3 F/T cycles) was 83.7%. The “Change in concentration [%]” value ([2]; LLOQ: 10 pg/ml) was −8.83%, the Accuracy ([2]; LLOQ: 10 pg/ml, 3 F/T cycles) was 81.9% and 75.0* % and 81.7% and 84.7% and 79.8* % and 81.8% and 88.5% and the “Accuracy, Intra-assay Mean” value ([2]; LLOQ: 10 pg/ml, Baseline) was 91.8%. The Accuracy ([2]; LLOQ: 10 pg/ml, Baseline) was 96.6% and 95.7% and 83.2%, the “Accuracy, Intra-assay Mean” value [2, 4] was 96.5% and the “Change in concentration [%]” value ([2]; QCHIGH: 1000 pg/ml) was 0.647%. For the same compound, the Accuracy [2, 4] was 96.4% and 96.2% (2×) and 96.9% and 96.7% and 94.6% and 98.3%, the “Accuracy, Intra-assay Mean” value ([2]; QCHIGH: 1000 pg/ml, Baseline) was 95.9% and the Accuracy ([2]; QCHIGH: 1000 pg/ml, Baseline) was 96.9% and 96.4% and 94.3%. For the same compound, the “Accuracy, Intra-assay Mean” value ([2]; QCLOW: 25 pg/ml, 3 F/T cycles) was 96.7%, the “Change in concentration [%]” value ([2]; QCLOW: 25 pg/ml) was 4.44% and the Accuracy ([2]; QCLOW: 25 pg/ml, 3 F/T cycles) was 95.2% and 102% and 101% and 91.5% and 98.8% and 93.6% and 94.9%. The “Accuracy, Intra-assay Mean” value ([2]; QCLOW: 25 pg/ml, Baseline) was 92.6%, the Accuracy ([2]; QCLOW: 25 pg/ml, Baseline) was 94% and 93.4% and 90.5% and the “Accuracy, Intra-assay Mean” value ([2]; QCMID: 100 pg/ml, 3 F/T cycles) was 98.5%. The “Change in concentration [%]” value ([2]; QCMID: 100 pg/ml) was 1.03%, the Accuracy ([2]; QCMID: 100 pg/ml, 3 F/T cycles) was 99.2% and 97.9% and 99.5% and 99.6% and 94.9% and 98% and 100% and the “Accuracy, Intra-assay Mean” value ([2]; QCMID: 100 pg/ml, Baseline) was 97.5%. The Accuracy ([2]; QCMID: 100 pg/ml, Baseline) was 101% and 94.3% and 97.4%, the “Accuracy, Intra-assay Mean” value [2, 5] was 95.7% and the “Change in concentration [%]” value ([2]; ULOQ: 10000 pg/ml) was −0.9%. For the same compound, the Accuracy [2, 5] was 97.8% and 94.3% and 94% and 96.4% and 99.2% and 93% and 95.2%, the “Accuracy, Intra-assay Mean” value ([2]; ULOQ: 10000 pg/ml, Baseline) was 96.6% and the Accuracy ([2]; ULOQ: 10000 pg/ml, Baseline) was 94.7% and 94.9% and 100%. The “Change in plasma concentration following three freeze/thaw cycles” value ([2]; human plasma QC samples, −20° C., three freeze/thaw cycles, vs freshly processed QC) was no more than 8.83%, the Change in concentration ([3]; LLOQ: 10 pg/ml) was 1.09% and the Change in concentration ([3]; QCHIGH: 1000 pg/ml) was −0.451%. The Change in concentration ([3]; QCLOW: 25 pg/ml) was −0.0195%, the Change in concentration ([3]; QCMID: 100 pg/ml) was 2.3% and the Change in concentration ([3]; ULOQ: 10000 pg/ml) was 0.383%. For the same compound, the “Change in concentration [%]” value ([3]; LLOQ: 10 pg/ml) was −1.26%, the “Accuracy, Intra-assay Mean” value ([3]; LLOQ: 10 pg/ml, Baseline) was 96.6% and the Accuracy ([3]; LLOQ: 10 pg/ml, Baseline) was 92.5% and 95% and 76.3* % and 91.3% and 98% and 109% and 93.7%. The “Accuracy, Intra-assay Mean” value [3, 6] was 95.4%, the Accuracy [3, 6] was 104% and 97.5% and 86% and 95.3% and 100% and 94.7% and 90.3% and the “Change in concentration [%]” value ([3]; QCHIGH: 1000 pg/ml) was −0.333%. For the same compound, the “Accuracy, Intra-assay Mean” value ([3]; QCHIGH: 1000 pg/ml, Baseline) was 100%, the Accuracy ([3]; QCHIGH: 1000 pg/ml, Baseline) was 96.5% and 99.5% and 97.7% and 101% (3×) and 103% and the “Accuracy, Intra-assay Mean” value [3, 7] was 99.7%. The Accuracy [3, 7] was 101% (2×) and 98.8% and 98.9% and 99.9% and 99.1% and 99.6%, the “Change in concentration [%]” value ([3]; QCLOW: 25 pg/ml) was −0.948% and the “Accuracy, Intra-assay Mean” value ([3]; QCLOW: 25 pg/ml, Baseline) was 101%. For the same compound, the Accuracy ([3]; QCLOW: 25 pg/ml, Baseline) was 101% (2×) and 104% and 97.9% and 102% and 103% and 99.5%, the “Accuracy, Intra-assay Mean” value [3, 8] was 100% and the Accuracy [3, 8] was 95.5% and 102% and 107% and 96.4% and 106% and 92% and 103%. The “Change in concentration [%]” value ([3]; QCMID: 100 pg/ml) was 1.02%, the “Accuracy, Intra-assay Mean” value ([3]; QCMID: 100 pg/ml, Baseline) was 101% and the Accuracy ([3]; QCMID: 100 pg/ml, Baseline) was 101% (4×) and 102% and 96.6% and 107%. The “Accuracy, Intra-assay Mean” value [3, 9] was 102%, the Accuracy [3, 9] was 101% and 103% (2×) and 102% (2×) and 99.9% and 105% and the “Change in concentration [%]” value ([3]; ULOQ: 10000 pg/ml) was −1.85%. For the same compound, the “Accuracy, Intra-assay Mean” value ([3]; ULOQ: 10000 pg/ml, Baseline) was 97.2%, the Accuracy ([3]; ULOQ: 10000 pg/ml, Baseline) was 97.9% and 97.3% and 98.1% and 96.5% and 97.1% and 98.7% and 95% and the “Accuracy, Intra-assay Mean” value [3, 10] was 95.4%. For the same compound, the Accuracy [3, 10] was 97.4% and 96.6% and 95.2% and 92.9% and 95.1% and 96.4% and 94.2%, the “Deviations of the means of the QCs of the two runs (reinjection) after 8 days at −20° C.” value ([3]; worked-up human plasma samples, 8 days at −20° C.) was −1.85% to +1.02 and the “Deviations of the means of the QCs of the two runs (reinjection) after overnight storage at 10° C.” value ([3]; worked-up human plasma samples, overnight at 10° C. in the autosampler) was −0.451% to +2.3.
